Assay results reported in US12370235B2, “Synthetic, non-natural antimicrobial peptides inspired by Staphylococcus auricularis delta toxin” (University of Saskatchewan, priority 2021, dated 2025).
≈ marks a conversion by molar mass, not a printed value. Square brackets hold non-standard residues; d marks the D form. Ends that are not written are not given here. Peptide text beside a SMILES is read from it. Orn = NCCC[C@H](N)C(=O)O

How the values were obtained:
[1] = test system: S. aureus ATCC BAA-1683 (MRSA SCCmec type IV); test: MIC, broth dilution; type: cell-based, Staphylococcus aureus; conditions: Table 5; STIP3 variants, highest concentration 100 μg/mL
Procedure: (§1) MIC determination. MICs were measured using peptides with 95% purity. For bacterial studies, cation-adjusted Mueller Hinton (MH) broth was used as the growth medium whereas Yeast Peptone Dextrose (YPD; 10 g/L yeast extract, 20 g/L peptone, 20 g/L dextrose) was used for Candida spp. and other yeast. Microorganisms were diluted to an optical density of […] in MH or YPD broth and a 180 μl volume was mixed with 20 μl of peptide arrayed as a 2-fold dilution series in a flat-bottom 96-well microtitre plate. A control was performed using 20 μl of sterile water. Plates were incubated as standing cultures overnight at 37° C.
(§2) Determination of minimum inhibitory concentrations. The MICs were measured for bioactive peptides identified from the initial screen. For bacterial studies, cation-adjusted Mueller Hinton (MH) broth was used as the growth medium whereas YPD was used for C. albicans. Bacterial cultures were diluted to a OD value of 6×10^−4 in MH broth and a 180 μl volume was mixed with 20 μl of peptide arrayed as 2-fold dilution series in a 96-well plate. For the positive control, 20 μl of sterile water was used. Plates were incubated as standing cultures overnight at 37° C. The lowest peptide concentration that resulted no observed microbial growth after an overnight treatment was defined as the MIC.

[2] = test system: S. aureus ATCC BAA-41 (MRSA SCCmec type II); test: MIC, broth dilution; type: cell-based, Staphylococcus aureus; conditions: Table 5; STIP3 variants, highest concentration 100 μg/mL
Procedure: as §1, §2

[3] = test system: S. aureus ATCC BAA-42 (MRSA SCCmec type VI); test: MIC, broth dilution; type: cell-based, Staphylococcus aureus; conditions: Table 5; STIP3 variants, highest concentration 100 μg/mL
Procedure: as §1, §2

[4] = test system: S. aureus ATCC BAA-2313 (MRSA SCCmec type XI); test: MIC, broth dilution; type: cell-based, Staphylococcus aureus; conditions: Table 5; STIP3 variants, highest concentration 100 μg/mL
Procedure: as §1, §2

[5] = test system: S. aureus ATCC BAA-44 (MRSA SCCmec type I); test: MIC, broth dilution; type: cell-based, Staphylococcus aureus; conditions: Table 5; STIP3 variants, highest concentration 100 μg/mL
Procedure: as §1, §2

S. aureus ATCC 29213 = test: MIC, broth dilution; type: cell-based, Staphylococcus aureus; conditions: Table 5; STIP3 variants, highest concentration 100 μg/mL
Procedure: as §1, §2

[6] = test system: S. aureus ATCC BAA-2094 (MRSA SCCmec type V); test: MIC, broth dilution; type: cell-based, Staphylococcus aureus; conditions: Table 5; STIP3 variants, highest concentration 100 μg/mL
Procedure: as §1, §2

[7] = test system: S. aureus ATCC 33592 (MRSA SCCmec type III); test: MIC, broth dilution; type: cell-based, Staphylococcus aureus; conditions: Table 5; STIP3 variants, highest concentration 100 μg/mL
Procedure: as §1, §2

C. albicans MYA-2876 = test: MIC, YPD broth; type: cell-based, Candida albicans; conditions: Table 8
Procedure: as §1, §2

[8] = test system: Candida duobushaemulonii AR 392; test: MIC, YPD broth, CDC and FDA AR Candida isolate panel; type: cell-based; conditions: Table 9 below the line: only 200 or 100 μg/mL tested; values reported as 100 are ≤100 μg/mL
Procedure: as §1

[9] = test system: Candida haemulonii AR 395; test: as above; type: cell-based; conditions: Table 9 below the line: only 200 or 100 μg/mL tested; values reported as 100 are ≤100 μg/mL
Procedure: as §1

Kodamae ohmeri AR 396 = test: as above; type: cell-based; conditions: Table 9 below the line: only 200 or 100 μg/mL tested; values reported as 100 are ≤100 μg/mL
Procedure: as §1

[10] = test system: Candida duobushaemulonii AR 394; test: as above; type: cell-based; conditions: Table 9 below the line: only 200 or 100 μg/mL tested; values reported as 100 are ≤100 μg/mL
Procedure: as §1

[11] = test system: Saccharomyces cerevisiae AR 399; test: as above; type: cell-based; conditions: Table 9 below the line: only 200 or 100 μg/mL tested; values reported as 100 are ≤100 μg/mL
Procedure: as §1

[12] = test system: Candida lusitaniae AR 398; test: as above; type: cell-based; conditions: Table 9 below the line: only 200 or 100 μg/mL tested; values reported as 100 are ≤100 μg/mL
Procedure: as §1

[13] = test system: Candida haemulonii AR 393; test: as above; type: cell-based; conditions: Table 9 below the line: only 200 or 100 μg/mL tested; values reported as 100 are ≤100 μg/mL
Procedure: as §1

[14] = test system: Saccharomyces cerevisiae AR 400; test: as above; type: cell-based; conditions: Table 9 below the line: only 200 or 100 μg/mL tested; values reported as 100 are ≤100 μg/mL
Procedure: as §1

[15] = test system: Candida duobushaemulonii AR 391; test: as above; type: cell-based; conditions: Table 9 below the line: only 200 or 100 μg/mL tested; values reported as 100 are ≤100 μg/mL
Procedure: as §1

Candida krusei AR 397 = test: as above; type: cell-based; conditions: Table 9 below the line: only 200 or 100 μg/mL tested; values reported as 100 are ≤100 μg/mL
Procedure: as §1

[16] = test system: Mannheimia haemolytica ATCC 33393; test: MIC, broth dilution; type: cell-based; conditions: Table 11; highest concentration 25 μg/mL
Procedure: as §1, §2
The ability of STIP3 variants to inhibit the growth of Mannheimia haemolytica ATCC 33393 was evaluated. This included an alanine scan of STIP3-1 (FIG. 8 & Table 10) as well as 30 rationally-designed STIPs that were evaluated in the preceding Examples against other pathogens (Table 11). Substitutions at a greater number of sites were tolerated in the context of antimicrobial activity. Moreover, the inclusion of basic natural and unnatural amino acids (e.g. lysine, ornithine, and arginine) at positions 3, 4 and 11 (i.e. X1, X2, and X4 of SEQ ID NO: 32) to afford a more uniformly cationic peptide increased activity against M. haemolytica.

Row | Compound | MIC S. aureus ATCC BAA 1683 (IV) [1] | MIC S. aureus ATCC BAA 41 (II) [2] [µg/mL] | MIC S. aureus ATCC BAA 42 (VI) [3] [µg/mL] | MIC S. aureus ATCC BAA 2313 (XI) [4] [µg/mL] | MIC S. aureus ATCC BAA 44 (I) [5] [µg/mL] | MIC S. aureus ATCC 29213 (S. aureus ATCC 29213) [µg/mL] | MIC S. aureus ATCC BAA 2094 (V) [6] [µg/mL] | MIC S. aureus ATCC 33592 (III) [7] [µg/mL] | MIC C. albicans MYA-2876 (C. albicans MYA-2876) | MIC (μg/mL) Candida duobushaemulonii AR 392 [8] | MIC (μg/mL) Candida haemulonii AR 395 [9] | MIC (μg/mL) Kodamae ohmeri AR 396 (Kodamae ohmeri AR 396) | MIC (μg/mL) Candida duobushaemulonii AR 394 [10] | MIC (μg/mL) Saccharomyces cerevisiae AR 399 [11] [µg/mL] | MIC (μg/mL) Candida lusitaniae AR 398 [12] [µg/mL] | MIC (μg/mL) Candida haemulonii AR 393 [13] | MIC (μg/mL) Saccharomyces cerevisiae AR 400 [14] [µg/mL] | MIC (μg/mL) Candida duobushaemulonii AR 391 [15] | MIC (μg/mL) Candida krusei AR 397 (Candida krusei AR 397) [µg/mL] | MIC (μg/mL) M. haemolytica [16]
1 | CC[C@H](C)[C@H](NC(=O)[C@H](Cc1c[nH]c2ccccc12)NC(=O)[C@H](CCCN)NC(=O)[C@@H](NC(=O)[C@H](CC(C)C)NC(=O)[C@H](C)NC(=O)[C@H](CCCN)NC(=O)[C@@H](NC(=O)[C@@H](N)[C@@H](C)O)C(C)C)C(C)C)C(=O)N[C@@H](CC(C)C)C(=O)N[C@@H](CCCN)C(=O)N[C@H](C(=O)N[C@H](C(=O)N[C@@H](C)C(=O)N[C@@H](CCCN)C(=O)N[C@@H](Cc1ccccc1)C(=O)N[C@@H](C)C(=O)O)C(C)C)[C@@H](C)O [STIP3-22, TVXALVXWILXTVAXFA] (H-TV[Orn]ALV[Orn]WIL[Orn]TVA[Orn]FA-OH; N-terminus and C-terminus assumed) | 25 µg/mL (≈ 13.4 µM) | 25 (≈ 13.4 µM) | 25 (≈ 13.4 µM) | 100 (≈ 53.8 µM) | 25 (≈ 13.4 µM) | 25 (≈ 13.4 µM) | 25 (≈ 13.4 µM) | 25 (≈ 13.4 µM) | > (> symbol indicates that no inhibition was observed at the highest concentration of peptide tested: 100 μg/mL) | > (values below the line were determined using two concentrations of peptide 200 or 100 μg/mL) | > (values below the line were determined using two concentrations of peptide 200 or 100 μg/mL) | > (values below the line were determined using two concentrations of peptide 200 or 100 μg/mL) | > (values below the line were determined using two concentrations of peptide 200 or 100 μg/mL) | ≤ 100 | ≤ 100 | > (values below the line were determined using two concentrations of peptide 200 or 100 μg/mL) | ≤ 100 | > (values below the line were determined using two concentrations of peptide 200 or 100 μg/mL) | ≤ 100 | 6.25 µg/mL (≈ 3.36 µM)
2 | TVGVLVKWILDTVKKFA [STIP3-8, TVGVLVKWILDTVKKFA] | > (no inhibition was observed at the highest concentration of peptide tested: 100 μg/mL for the STIP3 variants) | 100 | 100 | 100 | 100 | 100 | 100 | 100 | > (> symbol indicates that no inhibition was observed at the highest concentration of peptide tested: 100 μg/mL) | > (values below the line were determined using two concentrations of peptide 200 or 100 μg/mL) | > (values below the line were determined using two concentrations of peptide 200 or 100 μg/mL) | > (values below the line were determined using two concentrations of peptide 200 or 100 μg/mL) | > (values below the line were determined using two concentrations of peptide 200 or 100 μg/mL) | ≤ 100 | 180 | > (values below the line were determined using two concentrations of peptide 200 or 100 μg/mL) | ≤ 100 | > (values below the line were determined using two concentrations of peptide 200 or 100 μg/mL) | ≤ 100 | > (> symbol indicates that no inhibition was observed at the highest concentration of peptide tested: 25 μg/mL)
3 | TVGGLVKWILDTVKKFW [STIP3-6, TVGGLVKWILDTVKKFW] | 12.5 µg/mL | 12.5 | 12.5 | 12.5 | 25 | 12.5 | 12.5 | 12.5 | 50 µg/mL | > (values below the line were determined using two concentrations of peptide 200 or 100 μg/mL) | > (values below the line were determined using two concentrations of peptide 200 or 100 μg/mL) | > (values below the line were determined using two concentrations of peptide 200 or 100 μg/mL) | > (values below the line were determined using two concentrations of peptide 200 or 100 μg/mL) | ≤ 100 | ≤ 100 | > (values below the line were determined using two concentrations of peptide 200 or 100 μg/mL) | ≤ 100 | > (values below the line were determined using two concentrations of peptide 200 or 100 μg/mL) | ≤ 100 | 25 µg/mL
